We go through four compounds from patent publication US4428952A, “Substituted pyrrolo[2,1-b]quinazolines and pyrido[2,1-b]quinazolines useful for the treatment of or the prevention of gastrointestinal ulcers” (Farmitalia Carlo Erba S.p.A., priority 1981, dated 1984).

Some results are limits rather than exact numbers.

In data set [1] the test system is restraint ulcers. The data set can be described thus: inhibition of restraint ulcers in rats (Bonfils et al.). Format: in vivo, rat (Sprague-Dawley male). The conditions noted are these: po; rat, p.o. one hour before immobilization; approximate values; lesions counted 4 hours after immobilization; read-out: Anti-ulcerogenic activity ED50 p.o. The procedure:
The anti-ulcerogenic activity of the compounds of the invention is shown, e.g., by the fact that they are active in the test of the inhibition of restraint ulcers in rats, according to the method of Bonfils et al., (Therapie, 1960, 5, 1096; Jap. J. Pharmac. 1945, 43, 5).
The tested compound was administered per os (p.o.) one hour before the immobilization. Six Sprague-Dawley male rats (100-120 g) fasted 24 hours were used for the experiment: a square flexible small-mesh wire netting was used for the immobilization and 4 hours after the immobilization the rats were sacrificed, their stomachs were removed and the lesions counted under a dissecting microscope.

Data set [2] has as its system syndrome induced by oxotremorine. Briefly: antagonism against syndrome induced by oxotremorine in mice (Leszkovszky and Tardos); anticholinergic activity. The class given is in vivo, mouse. The conditions noted are these: 100 mg/kg, oral administration. The source says:
Considering that many anti-ulcer agents display, as does atropine, a remarkable but undesired anti-cholinergic activity, the compounds of the invention have been assessed for their antagonism against syndrome induced by oxotremorine in mice, according to the method described by Leszkovszky G. P. and Tardos L. (Europ. J.Pharmac. 1971, 15, 310).

The nature of data set [3]: acute toxicity (LD50), single administration of increasing doses. The conditions noted are these: in vivo, po, mouse, per os, measured on the seventh day of treatment, read-out: approximate acute toxicity (LD50). An excerpt: In view of their high therapeutic index the compounds of the invention can be safely used in medicine. For example, the approximate acute toxicity (LD50) of the compounds 3-benzylidene-1,2,3,9-tetrahydro-9-oxo-pyrrolo[2,1-b]quinazoline-7-carboxylic acid; 3-benzylidene-1,2,3,9-tetrahydro-9-oxo-pyrrolo[2,1-b]quinazoline-6-carboxylic acid; 6-benzylidene-6,7,8,9-tetrahydro-11-oxo-11H-pyrido[2,1-b]quinazoline-2-carboxylic acid; 6-benzylidene-6,7,8,9-tetrahydro-11-oxo-11H-pyrido[2,1-b]quinazoline-3-carboxylic acid in mouse, determined with single administration of increasing doses and measured on the seventh day of treatment is per os higher than 800 mg/kg.

Data set [4] has as its system gastric secretion. The data set can be described thus: inhibition of gastric secretion in rats (H. Shay et al.). The class given is in vivo. The settings on record: Rattus norvegicus, intraduodenal administration, approximate value, read-out: antisecretory activity ED50.

By ED50 is commonly meant the midpoint of the dose-response relation. The LD50 is the dose expected to kill half of the subjects tested. As for `O=C(O)c1ccc2c(=O)n3c(nc2c1)C(=Cc1ccccc1)CC3` [3-benzylidene-1,2,3,9-tetrahydro-9-oxo-pyrrolo[2,1-b]quinazoline-6-carboxylic acid], the median effective dose (ED50) in data set [1] was roughly 10 mg/kg. Moreover, the “antagonism against syndrome induced by oxotremorine” value (“antagonism against syndrome induced” below) in data set [2] was “inactive”. Besides, in data set [3], the LD50 at 168 h was greater than 800 mg/kg.
On the same counts, the results for `O=C(O)c1ccc2nc3n(c(=O)c2c1)CCC3=Cc1ccccc1` [3-benzylidene-1,2,3,9-tetrahydro-9-oxo-pyrrolo[2,1-b]quinazoline-7-carboxylic acid] are roughly 8 mg/kg, “inactive” and greater than 800 mg/kg.
Take `O=C(O)c1ccc2c(=O)n3c(nc2c1)C(=Cc1ccccc1)CCC3` [6-benzylidene-6,7,8,9-tetrahydro-11-oxo-11H-pyrido/2,1-b/quinazoline-3-carboxylic acid]: the 50% effective dose (ED50) is roughly 8 mg/kg in data set [1] and roughly 15 mg/kg in data set [4]. Besides, the “antagonism against syndrome induced” value in data set [2] was “inactive”. Also, the 50% lethal dose (LD50) at 168 h in data set [3] is greater than 800 mg/kg.
For the compound `O=C(O)c1ccc2nc3n(c(=O)c2c1)CCCC3=Cc1ccccc1` [6-benzylidene-6,7,8,9-tetrahydro-11-oxo-11H-pyrido[2,1-b]quinazoline-2-carboxylic acid], the 50% effective dose (ED50) in data set [1] was roughly 9 mg/kg. For the same compound, the “antagonism against syndrome induced” value in data set [2] is “inactive”. Moreover, the LD50 at 168 h in data set [3] is greater than 800 mg/kg.
